Test results from PubChem BioAssay AID1845207 (Molecular Pharmacology Branch, DTP, NCI, 2023).
pIC50: −log10 of the molar value. Several values for one entry are separate records, joined by “and”; a condition that tells them apart may be missing. Equal entries are not always repeated.

Test system: NCI-H1876 tumor spheroid viability
Assay: Anticancer human tumor NCI-H1876 cell line growth inhibition;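 also: spheroids exposed to compounds for seven days before the viability read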;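 as to viability, T/C: percent of DMSO vehicle control viability so 100% = vehicle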
Details: spheroids with HUVEC and MSC; for viability, T/C: stronger effect = lower value
Summary of the method: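 Complex spheroids of malignant cells with endothelial cells and mesenchymal stem cells; agents alone or combined, from near clinical Cmax (or 10 microM if unknown) down in half-log steps, 0.25% DMSO final.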

Structure (SMILES): COc1cc(C)[nH]c(=O)c1CN1CCc2c(Cl)cc(C(OC)C3COC3)c(Cl)c2C1=O (stereo not drawn) + COc1cc2c(cc1O)CCNC21CSC2c3c(OC(C)=O)c(C)c4c(c3C(COC1=O)N1C(O)C3Cc5cc(C)c(OC)c(O)c5C(C21)N3C)OCO4
- pIC50 (curve of first compound, second compound 30 pM): < 5.00
- pIC50 (curve of first compound, second compound 94.9 pM): < 5.00
- pIC50 (curve of first compound, second compound 0.0003 µM): > 7.50
- pIC50 (curve of first compound, second compound 0.000949 µM): > 7.50
- pIC50 (curve of first compound, second compound 0.003 µM): > 7.50
- viability, T/C (second compound 30 pM, first compound 0.0316 µM): 99.7%
- viability, T/C (second compound 30 pM, first compound 0.1 µM): 104%
- viability, T/C (second compound 30 pM, first compound 0.316 µM): 96.9%
- viability, T/C (second compound 30 pM, first compound 1 µM): 97.6%
- viability, T/C (second compound 30 pM, first compound 3.16 µM): 94.5%
- viability, T/C (second compound 30 pM, first compound 10 µM): 90.5%
- viability, T/C (second compound 94.9 pM, first compound 0.0316 µM): 91.6%
- viability, T/C (second compound 94.9 pM, first compound 0.1 µM): 89.6%
- viability, T/C (second compound 94.9 pM, first compound 0.316 µM): 89.5%
- viability, T/C (second compound 94.9 pM, first compound 1 µM): 86.9%
- viability, T/C (second compound 94.9 pM, first compound 3.16 µM): 81.9%
- viability, T/C (second compound 94.9 pM, first compound 10 µM): 76.7%
- viability, T/C (second compound 0.0003 µM, first compound 0.0316 µM): 22%
- viability, T/C (second compound 0.0003 µM, first compound 0.1 µM): 21.2%
- viability, T/C (second compound 0.0003 µM, first compound 0.316 µM): 23.9%
- viability, T/C (second compound 0.0003 µM, first compound 1 µM): 20.5%
- viability, T/C (second compound 0.0003 µM, first compound 3.16 µM): 19.1%
- viability, T/C (second compound 0.0003 µM, first compound 10 µM): 14%
- viability, T/C (second compound 0.000949 µM, first compound 0.0316 µM): 2.52%
- viability, T/C (second compound 0.000949 µM, first compound 0.1 µM): 2.44%
- viability, T/C (second compound 0.000949 µM, first compound 0.316 µM): 2.38%
- viability, T/C (second compound 0.000949 µM, first compound 1 µM): 2.44%
- viability, T/C (second compound 0.000949 µM, first compound 3.16 µM): 2.06%
- viability, T/C (second compound 0.000949 µM, first compound 10 µM): 2.03%
- viability, T/C (second compound 0.003 µM, first compound 0.0316 µM): 0.75%
- viability, T/C (second compound 0.003 µM, first compound 0.1 µM): 0.84%
- viability, T/C (second compound 0.003 µM, first compound 0.316 µM): 0.98%
- viability, T/C (second compound 0.003 µM, first compound 1 µM): 0.57%
- viability, T/C (second compound 0.003 µM, first compound 3.16 µM): 0.7%
- viability, T/C (second compound 0.003 µM, first compound 10 µM): 0.93%

Structure (SMILES): CNCc1ccc(-c2cc(-c3nc(-c4ccc(S(=O)(=O)C(C)C)cc4)cnc3N)on2)cc1
- viability, T/C (compound 0.00949 µM): 97.7% and 86.9% and 104%
- viability, T/C (compound 0.03 µM): 76.6% and 72.2% and 99.9%
- viability, T/C (compound 0.0949 µM): 59.2% and 49.9% and 105%
- viability, T/C (compound 0.3 µM): 31.1% and 27.1% and 92.3%
- viability, T/C (compound 0.949 µM): 16.1% and 10.4% and 48.3%
- viability, T/C (compound 3 µM): 10.2% and 0.26% and 20.5%
- pIC50 (curve of compound): 6.90 and 7.02 and 6.04

Structure (SMILES): Cc1cc(C)c(CNC(=O)c2cc(-c3ccc(CN4CCOCC4)cc3)cc3c2cnn3C2CCCC2)c(=O)[nH]1
- viability, T/C (compound 0.0316 µM): 100% and 97.7% and 96.6%
- viability, T/C (compound 0.1 µM): 102% and 83.9% and 79.4%
- viability, T/C (compound 0.316 µM): 105% and 63% and 63.8%
- viability, T/C (compound 1 µM): 105% and 49.2% and 51.9%
- viability, T/C (compound 3.16 µM): 107% and 28.4% and 30.3%
- viability, T/C (compound 10 µM): 99.2% and 12% and 11.3%

Structure (SMILES): O=C(c1cc(Cc2n[nH]c(=O)c3ccccc23)ccc1F)N1CCN(C(=O)C2CC2)CC1 + Cn1nnc2c(C(N)=O)ncn2c1=O
- pIC50 (curve of first compound, second compound 1 µM): 5.16
- pIC50 (curve of first compound, second compound 3.16 µM): 4.60
- pIC50 (curve of first compound, second compound 10 µM): 5.01
- pIC50 (curve of first compound, second compound 31.6 µM): 5.57
- pIC50 (curve of first compound, second compound 100 µM): > 7.02
- viability, T/C (second compound 1 µM, first compound 0.0949 µM): 85.1%
- viability, T/C (second compound 1 µM, first compound 0.3 µM): 69.8%
- viability, T/C (second compound 1 µM, first compound 0.949 µM): 77.8%
- viability, T/C (second compound 1 µM, first compound 3 µM): 64.6%
- viability, T/C (second compound 1 µM, first compound 9.49 µM): 32.2%
- viability, T/C (second compound 1 µM, first compound 30 µM): 56.9%
- viability, T/C (second compound 3.16 µM, first compound 0.0949 µM): 89.8%
- viability, T/C (second compound 3.16 µM, first compound 0.3 µM): 82.4%
- viability, T/C (second compound 3.16 µM, first compound 0.949 µM): 72.7%
- viability, T/C (second compound 3.16 µM, first compound 3 µM): 61.5%
- viability, T/C (second compound 3.16 µM, first compound 9.49 µM): 65.2%
- viability, T/C (second compound 3.16 µM, first compound 30 µM): 45.1%
- viability, T/C (second compound 10 µM, first compound 0.0949 µM): 79.2%
- viability, T/C (second compound 10 µM, first compound 0.3 µM): 70.3%
- viability, T/C (second compound 10 µM, first compound 0.949 µM): 64.6%
- viability, T/C (second compound 10 µM, first compound 3 µM): 53.7%
- viability, T/C (second compound 10 µM, first compound 9.49 µM): 60%
- viability, T/C (second compound 10 µM, first compound 30 µM): 17.2%
- viability, T/C (second compound 31.6 µM, first compound 0.0949 µM): 75.3%
- viability, T/C (second compound 31.6 µM, first compound 0.3 µM): 69.4%
- viability, T/C (second compound 31.6 µM, first compound 0.949 µM): 53.3%
- viability, T/C (second compound 31.6 µM, first compound 3 µM): 55.7%
- viability, T/C (second compound 31.6 µM, first compound 9.49 µM): 32.9%
- viability, T/C (second compound 31.6 µM, first compound 30 µM): 15.8%
- viability, T/C (second compound 100 µM, first compound 0.0949 µM): 54.7%
- viability, T/C (second compound 100 µM, first compound 0.3 µM): 31.5%
- viability, T/C (second compound 100 µM, first compound 0.949 µM): 29.6%
- viability, T/C (second compound 100 µM, first compound 3 µM): 62.5%
- viability, T/C (second compound 100 µM, first compound 9.49 µM): 18.8%
- viability, T/C (second compound 100 µM, first compound 30 µM): 15.7%
